Test results reported in US6875777B2, “Compounds” (AstraZeneca AB, priority 1999, dated 2005).

Assays:
[1] = RLM metabolic stability (% remaining); details: for RLM 10000 % REM.: 10000 (unit not given); for RLM 100000 % REM.: 100000 (unit not given)
[2] = MLM metabolic stability (% remaining); details: for MLM 10000 % REM.: 10000 (unit not given); for MLM 100000 % REM.: 100000 (unit not given)

| SMILES | RLM 10000 % REM. [1] | RLM 100000 % REM. [1] | MLM 10000 % REM. [2] | MLM 100000 % REM. [2] |
| --- | --- | --- | --- | --- |
| CCN(CC)C(=O)c1ccc(N(c2cccc(O)c2)C2CCN(Cc3cccc(F)c3)CC2)cc1 [Example 24, N,N-diethyl-4-[[1-[(3-fluorophenyl)methyl]-4-piperidinyl](3-hydroxyphenyl)amino]-benzamide] | 3.5% | 87.5% | 3.5% | 71.5% |
| CCN(CC)C(=O)c1ccc(N(c2cccc(O)c2)C2CCN(Cc3ccc(I)cc3)CC2)cc1 [Example 19, N,N-diethyl-4-[(3-hydroxyphenyl)[1-[(4-iodophenyl)methyl]-4-piperidinyl]amino]-benzamide] | 0% | 35.667% | 30.667% | 61.667% |
| CCN(CC)C(=O)c1ccc(N(c2cc(O)ccc2F)C2CCN(Cc3ccccc3)CC2)cc1 [Example 6, N,N-diethyl-4-[(2-fluoro-5-hydroxyphenyl)[1-(phenylmethyl)-4-piperidinyl]amino]-benzamide] | 5.333% | 81.333% | 2% | 69% |
| CCN(CC)C(=O)c1ccc(N(c2cccc(O)c2)C2CCN(Cc3ccc(Cl)cc3Cl)CC2)cc1 [Example 23, 4-[[1-[(2,4-dichlorophenyl)methyl]-4-piperidinyl](3-hydroxyphenyl)amino]-N,N-diethyl-benzamide] | 20.5% | 75% | 30.5% | 93% |
| CCN(CC)C(=O)c1ccc(N(c2cccc(O)c2)C2CCN(Cc3ccc(F)cc3)CC2)cc1 [Example 22, N,N-diethyl-4-[[1-[(4-fluorophenyl)methyl]-4-piperidinyl](3-hydroxyphenyl)amino]-benzamide] | 17% | 63% | 8.5% | 85% |
| CCN(CC)C(=O)c1ccc(N(c2cccc(O)c2)C2CCN(Cc3ncc[nH]3)CC2)cc1 [Example 29, N,N-diethyl-4-{3-hydroxy[1-(1H-imidazol-2-ylmethyl)-4-piperidinyl]anilino}benzamide] | 36.5% | 74.5% | 6% | 92.5% |
| CCN(CC)C(=O)c1ccc(N(c2cccc(O)c2)C2CCN(Cc3ccccc3F)CC2)cc1 [Example 25, N,N-diethyl-4-[[1-[(2-fluorophenyl)methyl]-4-piperidinyl](3-hydroxyphenyl)amino]-benzamide] | 4% | 71% | 0% | 71% |
| CCN(CC)C(=O)c1ccc(N(c2cccc(O)c2)C2CCN(Cc3ccccn3)CC2)cc1 [Example 30, N,N-diethyl-4-{3-hydroxy[1-(2-pyridinylmethyl)-4-piperidinyl]anilino}benzamide] | 31% | 74% | 26% | 82% |
| CCN(CC)C(=O)c1ccc(N(c2cccc(O)c2)C2CCN(Cc3cccs3)CC2)cc1 [Example 28, N,N-diethyl-4-[(3-hydroxyphenyl)[1-(2-thienylmethyl)-4-piperidinyl]amino]-benzamide] | 1.5% | 52% | 1.5% | 80% |
| CCN(CC)C(=O)c1ccc(N(c2cccc(O)c2)C2CCN(Cc3ccccc3)CC2)cc1 [Example 1] | 4.333% | 66.125% | 10.4% | 85.2% |
| CCN(CC)C(=O)c1ccc(N(c2cccc(O)c2)C2CCN(Cc3ccoc3)CC2)cc1 [Example 15, N,N-diethyl-4-[[1-(3-furanylmethyl)-4-piperidinyl](3-hydroxyphenyl)amino]-benzamide] | 8% | 73% | 3.5% | 83.5% |
| CCN(CC)C(=O)c1ccc(N(c2cccc(O)c2)C2CCN(Cc3ccco3)CC2)cc1 [Example 27, N,N-diethyl-4-[[1-(2-furanylmethyl)-4-piperidinyl](3-hydroxyphenyl)amino]-benzamide] | 3.5% | 54.5% | 2% | 65% |
| CCN(CC)C(=O)c1ccc(N(c2cccc(O)c2)C2CCN(Cc3ccc(Br)cc3)CC2)cc1 [Example 20, N,N-diethyl-4-[[1-[(4-bromophenyl)methyl]-4-piperidinyl](3-hydroxyphenyl)amino]-benzamide] | 4.5% | 51.5% | 30.5% | 81.5% |
| CCN(CC)C(=O)c1ccc(N(c2cccc(O)c2)C2CCN(Cc3ccc(C)cc3)CC2)cc1 [Example 26, N,N-diethyl-4-[(3-hydroxyphenyl)[1-[(4-methylphenyl)methyl]-4-piperidinyl]amino]-benzamide] | 3.5% | 63.5% | 31.5% | 86% |
| CCN(CC)C(=O)c1ccc(N(c2cccc(O)c2)C2CCN(Cc3ccsc3)CC2)cc1 [Example 16, N,N-diethyl-4-[(3-hydroxyphenyl)[1-(3-thienylmethyl)-4-piperidinyl]amino]-benzamide] | 1.5% | 66.5% | 5% | 83% |
| CCN(CC)C(=O)c1ccc(N(c2cccc(O)c2)C2CCN(Cc3ccc(Cl)cc3)CC2)cc1 [Example 21, N,N-diethyl-4-[[1-[(4-chlorophenyl)methyl]-4-piperidinyl](3-hydroxyphenyl)amino]-benzamide] | 2.333% | 45% | 16.333% | 85% |
